# Source: publication PMC9697131, “Agomelatine, Ketamine and Vortioxetine Attenuate Energy Cell Metabolism—In Vitro Study” (International Journal of Molecular Sciences, 2022)
# Values joined by “and” are separate entries in the source; they are usually repeats but may differ in a detail not shown here. Equal entries are not always repeated. Where two headings read alike, the source gives them in different places.
# Assays:
# [1] = test system: complex I (NADH dehydrogenase); experiment: Complex I (NADH dehydrogenase) activity, spectrophotometric; assay type: biochemical; conditions: 100 μM drug, pig brain mitochondria, mean ± SD
# Procedure: (§1) Pig brains were obtained from a slaughterhouse. Mitochondrial fraction isolation and purification from brain cortex were performed as previously described. Briefly, grey matter from pig brains was homogenized and crude mitochondrial fraction was isolated and then centrifuged on the sucrose gradient to obtain purified mitochondrial fraction. The freshly purified mitochondria were kept on ice until the assays were performed and were used for measurements of the mitochondrial oxygen consumption rate, measurements of ATP and ROS formation. Frozen mitochondria (stored at −70 °C) were used for the following enzyme activity measurements: ETC complexes, citrate synthase (CS) and malate dehydrogenase (MDH) activity.
# (§2) Ultrasonication and incubation of mitochondria with the tested drugs for 30 min at 30 °C was performed before measurement with a corresponding drug-free control (DMSO) for every measurement. Mitochondrial enzymes activities were determined spectrophotometrically as absorbance using a GENESYS 180 UV-Vis Spectrophotometer (Thermo Fisher Scientific, Waltham, MA, USA).
# The reaction mixture consisted of KH2PO4, MgCl2 and KCN and the reaction was started by adding decylubiquinone and NADH. The rotenone-sensitive NADH oxidation reaction was measured at 340 nm for 5 min. The final protein concentration was 150 µg/mL and final drugs concentrations 2.5, 5, 10, 50 and 100 µM. Drug-free control (DMSO) was used as a control for each measurement.
# [2] = test system: complex II+III (succinate cytochrome c oxidoreductase); experiment: Complex II+III (succinate cytochrome c oxidoreductase) activity, spectrophotometric; assay type: biochemical; conditions: 100 μM drug; pig brain mitochondria; mean ± SD
# Procedure: as §1, §2
# The activity of complex II+III was measured with an antimycin A-sensitive cyt c reduction at 550 nm for 3 min, and it was initiated by the addition of cyt c. The medium consisted of KH2PO4, EDTA, KCN and rotenone. The final protein concentration was 50 µg/mL and final drugs concentrations 2.5, 5, 10, 50 and 100 µM. Drug-free control (DMSO) was used as a control for each measurement.
# [3] = test system: complex IV (cytochrome c oxidase); experiment: Complex IV (cytochrome c oxidase) activity, spectrophotometric; assay type: biochemical; conditions: pig brain mitochondria, mean ± SD
# Procedure: as §1, §2
# The medium consisted of KH2PO4, and the reaction was initiated by reduced cyt c. The decrease in absorbance was measured at 550 nm for 3 min. The final protein concentration was 10 µg/mL and final drugs concentrations 10, 50 and 100 µM. Drug-free control (DMSO) was used as a control for each measurement.
# [4] = biological target: T1, malate dehydrogenase (MDH) (Sus scrofa, UniProt P00346); experiment: Malate dehydrogenase activity; assay type: biochemical, pig; conditions: mean, N=3
# T1 construct: Frozen mitochondria (stored at −70 °C) were used for the following enzyme activity measurements: ETC complexes, citrate synthase (CS) and malate dehydrogenase (MDH) activity; from tissue; host or cells: pig brain cortex, purified mitochondrial fraction (frozen, sonicated)
# T1 sequence (P00346 25-338): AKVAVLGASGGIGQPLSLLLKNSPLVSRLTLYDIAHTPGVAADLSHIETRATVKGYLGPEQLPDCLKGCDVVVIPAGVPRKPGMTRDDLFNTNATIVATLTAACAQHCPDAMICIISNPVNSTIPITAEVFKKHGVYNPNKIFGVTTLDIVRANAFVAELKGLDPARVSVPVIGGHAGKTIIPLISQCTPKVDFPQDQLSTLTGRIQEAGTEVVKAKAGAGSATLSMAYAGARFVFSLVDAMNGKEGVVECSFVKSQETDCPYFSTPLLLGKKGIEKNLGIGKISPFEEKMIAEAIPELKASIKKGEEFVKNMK
# Procedure: as §1, §2
# The conversion of oxaloacetate to malate was used to measure the activity, and it was measured at 340 nm for 3 min. The reaction was initiated by adding oxaloacetate and nicotinamide adenine dinucleotide (NADH). […]
# [5] = test system: complex I-linked respiration, pig brain mitochondria; experiment: Complex I-linked mitochondrial respiration, high-resolution respirometry; assay type: biochemical; conditions: for effect on complex I-linked respiration (in words): titration 0.125–100 µM
# Procedure: as §1
# The mitochondrial oxygen consumption rate was measured by high-resolution respirometry using Oxygraph-2k (Oroboros Instruments Corp, Innsbruck, Austria). The final protein concentration was 0.05–0.14 mg/mL and the reaction mixture consisted of 2 mM malate, 5 mM pyruvate, 1.25 mM ADP and […] for complex I-linked respiration; 1.25 mM ADP, 0.75 mM MgCl2, 1 µM rotenone and 10 mM succinate for complex II-linked respiration. The following […] simultaneous measurements were assessed: a titration with the drug to the final drug concentrations of 0.125–100 µM in one chamber and a titration with a drug-free control (DMSO) in the second oxygraph chamber.
# The respiration rate was expressed as pmol O2 consumed/second/mg of a protein.
# (§3) The inhibition of respiration rate and MAO activity were analyzed by A four-parameter logistic regression with Prism software (GraphPad Software, San Diego, CA, USA) was used to analyze the respiratory rate inhibition and activity of MAO. […] The IC50 represents the drug concentration required to inhibit the difference between the baseline and the residual value of the mitochondrial oxygen flux or MAO activity by 50%.
# MAO-B = biological target: T2, MAO-B (Sus scrofa, UniProt Q6PLK3); experiment: MAO-B activity, radiolabeled [14C]PEA substrate; assay type: biochemical, pig; conditions: for MAO-B Inhibition (type): 0.1–300 µM; for MAO-B Hillslope / MAO-B Residual Activity: mean
# T2 construct: from tissue; host or cells: pig brain mitochondria
# T2 sequence (Q6PLK3 1-520): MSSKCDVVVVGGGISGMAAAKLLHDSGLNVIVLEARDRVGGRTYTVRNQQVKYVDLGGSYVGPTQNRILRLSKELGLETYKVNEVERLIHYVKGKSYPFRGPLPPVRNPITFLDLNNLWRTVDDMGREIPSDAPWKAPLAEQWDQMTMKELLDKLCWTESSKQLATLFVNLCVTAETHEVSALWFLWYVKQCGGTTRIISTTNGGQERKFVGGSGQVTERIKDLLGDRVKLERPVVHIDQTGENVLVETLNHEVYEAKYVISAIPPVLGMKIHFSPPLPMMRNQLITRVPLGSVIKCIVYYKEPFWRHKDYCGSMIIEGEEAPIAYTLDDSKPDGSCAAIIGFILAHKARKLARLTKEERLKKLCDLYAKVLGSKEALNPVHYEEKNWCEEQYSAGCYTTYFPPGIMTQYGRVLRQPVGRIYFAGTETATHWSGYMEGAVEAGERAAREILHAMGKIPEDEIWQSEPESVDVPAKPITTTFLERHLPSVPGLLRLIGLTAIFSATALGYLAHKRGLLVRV
# Procedure: as §1
# Mitochondria in KH buffer at final concentration of 800 µg/mL were preincubated with the tested drugs in a final concentration range of 0.1–300 µM for 60 min at 37 °C. For each measurement, there was a corresponding drug-free control (DMSO). Radiolabeled substrates ([^3H]serotonin for MAO-A and [^14C]PEA for MAO-B) were added to initiate the reaction. The reaction was carried out at 37 °C for 20 min for MAO-A and for 1 min for MAO-B, and the reaction was stopped by hydrochloric acid. The radioactivity of the organic phases of the extracts were measured by liquid scintillation counting (LS 6000IC, Beckman Instruments, Inc., Fullerton, CA, USA).
# as §3
smiles,measurement,setting,value
COc1ccc2cccc(CCNC(C)=O)c2c1 [agomelatine],complex I activity (relative to control = 100%),[1],73.7 ± 5.1%
same,complex II+III activity (relative to control = 100%),[2],94.9 ± 4.3%
same,complex IV activity (relative to control = 100%),[3]; 10 μM drug,45.0 ± 3.6%
same,complex IV activity (relative to control = 100%),[3]; 50 μM drug,17.9 ± 3.4%
same,complex IV activity (relative to control = 100%),[3]; 100 μM drug,12.8 ± 4.1%
same,MDH (% of Control),[4]; 10 μM drug,101.7 % of Control
same,MDH (% of Control),[4]; 100 μM drug,101.0 % of Control
same,effect on complex I-linked respiration (in words),[5],did not affect complex I-linked respiration at all
same,MAO-B Inhibition (type),MAO-B,none
same,MAO-B Inhibition (type),MAO-B; listed as AGO,did not affect its activity at all
CNC1(c2ccccc2Cl)CCCCC1=O (stereo not drawn) [ketamine],complex I activity (relative to control = 100%),[1],91.2 ± 6.6%
same,complex II+III activity (relative to control = 100%),[2],93.6 ± 2.6%
same,complex IV activity (relative to control = 100%),[3]; 100 μM drug,3.9 ± 3.0%
same,MDH (% of Control),[4]; 10 μM drug,97.4 % of Control
same,MDH (% of Control),[4]; 100 μM drug,101.7 % of Control
same,effect on complex I-linked respiration (in words),[5],inhibited complex I-linked respiration very weakly
same,IC50,MAO-B,51.2 µM
same,MAO-B Inhibition (type),MAO-B,weak
same,MAO-B Hillslope,MAO-B; 4 measurements,2.12
same,MAO-B Residual Activity,MAO-B; 4 measurements,0.707 rel.u.
Cc1ccc(Sc2ccccc2N2CCNCC2)c(C)c1 [vortioxetine],complex I activity (relative to control = 100%),[1]; listed as VOR,5.5 ± 1.8% and 5.5%
same,complex II+III activity (relative to control = 100%),[2],43.9 ± 1.2%
same,complex IV activity (relative to control = 100%),[3]; 100 μM drug,9.3 ± 3.8%
same,MDH (% of Control),[4]; 10 μM drug,106.9 % of Control
same,MDH (% of Control),[4]; 100 μM drug,100.2 % of Control
same,complex I-linked respiration rate (relative to control = 100%),"[5]; 50 μM drug, mean ± SD",22.5 ± 7.1%
same,residual activity of complex I-linked respiration,"[5]; four-parameter logistic fit, mean ± SEM",4.7%
same,IC50,"[5]; four-parameter logistic fit, mean ± SEM, listed as VOR",10.5 µM
same,effect on complex I-linked respiration (in words),[5],full inhibitor of complex I-linked respiration
same,MAO-B Inhibition (type),MAO-B,partial
same,IC50,"MAO-B; mean ± SEM, 4 measurements, read-out: MAO-B IC50",18.2 µM
same,MAO-B Hillslope,MAO-B; 4 measurements,2.58
same,MAO-B Residual Activity,MAO-B; 4 measurements,0.229 rel.u.
